From ChEMBL document CHEMBL5143615, “Novel 2-aryl-4-aryloxyquinoline-based fungistatics for Mucor circinelloides. Biological evaluation of activity, QSAR and docking study” (Bioorg Med Chem Lett, 2022)
≈ marks a conversion by molar mass, not a printed value. Calls of active or inactive are those of the source. No cut-off for these calls is given here.

Experiments:
Mucor circinelloides [1] = test: Antifungal activity against Mucor circinelloides R7B wild type strain assessed as few mycelia with several spores at 50 ug/ml by microscopic analysis; assay type: functional, organism-based; details: dose 50.0 µg/ml
[2] = Cytotoxicity against mouse NIH/3T3 cells assessed as reduction in cell viability at 50 ug/ml incubated for 48 hrs by MTT assay (reference value: 93.8 +/- 4.9 %); assay type: toxicity, cell-based, NIH3T3; details: at 50 µg/mL, read-out: Activity
Epidermophyton floccosum = test: Antifungal activity against Epidermophyton floccosum clinical isolate 1 assessed as reduction in fungal growth by broth dilution method; assay type: functional
[3] = target: T1, Lanosterol 14-alpha demethylase (Mus musculus, UniProt Q8K0C4); test: Inhibition of CYP51 in mouse NIH/3T3 cells assessed as specific enzymatic activity at 100 ug/ml incubated for 48 hrs by ELISA analysis; assay type: ADME, cell-based; details: nih/3t3, 48 h, dose 100 µg/ml
T1 sequence (Q8K0C4 whole entry): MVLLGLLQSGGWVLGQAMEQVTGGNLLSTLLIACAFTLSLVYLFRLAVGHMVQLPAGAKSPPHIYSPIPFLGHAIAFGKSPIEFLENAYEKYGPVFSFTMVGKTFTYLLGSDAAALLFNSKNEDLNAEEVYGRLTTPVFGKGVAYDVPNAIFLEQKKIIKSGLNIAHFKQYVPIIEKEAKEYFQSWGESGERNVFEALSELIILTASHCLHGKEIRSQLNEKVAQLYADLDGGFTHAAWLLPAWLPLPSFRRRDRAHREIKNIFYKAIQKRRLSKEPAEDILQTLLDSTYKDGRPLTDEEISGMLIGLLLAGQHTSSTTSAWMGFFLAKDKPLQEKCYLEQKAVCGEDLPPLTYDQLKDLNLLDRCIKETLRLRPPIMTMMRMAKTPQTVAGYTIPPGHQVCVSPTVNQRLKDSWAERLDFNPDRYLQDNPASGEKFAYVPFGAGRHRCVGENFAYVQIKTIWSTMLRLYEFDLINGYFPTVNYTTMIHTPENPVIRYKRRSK

Trichophyton rubrum [4] = test: Antifungal activity against Trichophyton rubrum clinical isolate 1 assessed as reduction in fungal growth by broth dilution method; assay type: functional
Mucor circinelloides [5] = test: Antifungal activity against Mucor circinelloides M5 strain assessed as reduction in spore germination at 150 ug/ml relative to control; assay type: functional; parameters: scale not given: the % may be the effect or the level left; details: dose 150 µg/ml
Aspergillus niger = test: Antifungal activity against Aspergillus niger clinical isolate 1 assessed as reduction in fungal growth by broth dilution method; assay type: functional
Mucor circinelloides [6] = test: Antifungal activity against Mucor circinelloides M5 strain assessed as non-germinated spores at 100 to 150 ug/ml by microscopic analysis; assay type: functional, organism-based; details: dose 100-150 µg/ml
Microsporum canis [7] = test: Antifungal activity against Microsporum canis clinical isolate 3 assessed as reduction in fungal growth by broth dilution method; assay type: functional
Nannizzia gypsea [8] = test: Antifungal activity against Microsporum gypseum clinical isolate 1 assessed as reduction in fungal growth by broth dilution method; assay type: functional
Mucor circinelloides [9] = test: Antifungal activity against Mucor circinelloides R7B wild type strain assessed as non-germinated spores at 100 to 150 ug/ml by microscopic analysis; assay type: functional, organism-based; details: dose 100-150 µg/ml
[10] = test system: Trichophyton mentagrophytes; test: Antifungal activity against Trichophyton mentagrophytes clinical isolate 1 assessed as reduction in fungal growth by broth dilution method; assay type: functional
Mucor circinelloides [11] = test: Antifungal activity against Mucor circinelloides R7B wild type strain assessed as reduction in spore germination at 100 ug/ml relative to control; assay type: functional; parameters: scale not given: the % may be the effect or the level left; details: dose 100 µg/ml
Mucor circinelloides [12] = test: Antifungal activity against Mucor circinelloides M5 strain assessed as reduction in spore germination at 50 ug/ml relative to control; assay type: functional; parameters: scale not given: the % may be the effect or the level left; details: dose 50 µg/ml
Mucor circinelloides [13] = test: Antifungal activity against Mucor circinelloides M5 strain assessed as reduction in fungal growth by broth dilution method; assay type: functional
Mucor circinelloides [14] = test: Antifungal activity against Mucor circinelloides M5 strain assessed as non-germinated spores and undifferentiated hyphae at 50 ug/ml by microscopic analysis; assay type: functional, organism-based; details: dose 50.0 µg/ml
Aspergillus nidulans [15] = test: Antifungal activity against Aspergillus nidulans clinical isolate 1 assessed as reduction in fungal growth by broth dilution method; assay type: functional
[16] = test system: Trichophyton mentagrophytes; test: Antifungal activity against Trichophyton mentagrophytes clinical isolate 3 assessed as reduction in fungal growth by broth dilution method; assay type: functional
[17] = target: T1, Lanosterol 14-alpha demethylase; test: Inhibition of CYP51 in mouse NIH/3T3 cells assessed as specific enzymatic activity at 200 ug/ml incubated for 48 hrs by ELISA analysis; assay type: ADME, cell-based; details: nih/3t3, 48 h, dose 200 µg/ml
Microsporum canis [18] = test: Antifungal activity against Microsporum canis clinical isolate 2 assessed as reduction in fungal growth by broth dilution method; assay type: functional
Trichophyton rubrum [19] = test: Antifungal activity against Trichophyton rubrum clinical isolate 2 assessed as reduction in fungal growth by broth dilution method; assay type: functional
Mucor circinelloides [20] = test: Antifungal activity against Mucor circinelloides R7B wild type strain assessed as complete absence of mycelia at 100 to 150 ug/ml by microscopic analysis; assay type: functional, organism-based; details: dose 100-150 µg/ml
[21] = test system: Trichophyton mentagrophytes; test: Antifungal activity against Trichophyton mentagrophytes clinical isolate 2 assessed as reduction in fungal growth by broth dilution method; assay type: functional
Nannizzia gypsea [22] = test: Antifungal activity against Microsporum gypseum clinical isolate 2 assessed as reduction in fungal growth by broth dilution method; assay type: functional
Microsporum canis [23] = test: Antifungal activity against Microsporum canis clinical isolate 1 assessed as reduction in fungal growth by broth dilution method; assay type: functional
Aspergillus nidulans [24] = test: Antifungal activity against Aspergillus nidulans clinical isolate 2 assessed as reduction in fungal growth by broth dilution method; assay type: functional
Mucor circinelloides [25] = test: Antifungal activity against Mucor circinelloides R7B wild type strain assessed as non-germinated spores and undifferentiated hyphae at 50 ug/ml by microscopic analysis; assay type: functional, organism-based; details: dose 50.0 µg/ml
[26] = Cytotoxicity against mouse NIH/3T3 cells assessed as reduction in cell viability at 25 ug/ml incubated for 48 hrs by MTT assay (reference value: 93.8 +/- 4.9 %); assay type: toxicity, cell-based, NIH3T3; details: at 25 µg/mL, read-out: Activity
[27] = target: T1, Lanosterol 14-alpha demethylase; test: Inhibition of CYP51 in mouse NIH/3T3 cells assessed as specific enzymatic activity at 50 ug/ml incubated for 48 hrs by ELISA analysis; assay type: ADME, cell-based; details: nih/3t3, 48 h, dose 50 µg/ml
Mucor circinelloides [28] = test: Antifungal activity against Mucor circinelloides R7B wild type strain assessed as reduction in fungal growth by broth dilution method; assay type: functional
Mucor circinelloides [29] = test: Antifungal activity against Mucor circinelloides M5 strain assessed as complete absence of mycelia at 100 to 150 ug/ml by microscopic analysis; assay type: functional, organism-based; details: dose 100-150 µg/ml
Mucor circinelloides [30] = test: Antifungal activity against Mucor circinelloides M5 strain assessed as reduction in spore germination at 25 ug/ml relative to control; assay type: functional; parameters: scale not given: the % may be the effect or the level left; details: dose 25 µg/ml
[31] = Cytotoxicity against mouse NIH/3T3 cells assessed as reduction in cell viability at 150 ug/ml incubated for 48 hrs by MTT assay (reference value: 93.8 +/- 4.9 %); assay type: toxicity, cell-based, NIH3T3; details: at 150 µg/mL, read-out: Activity
[32] = target: T1, Lanosterol 14-alpha demethylase; test: Inhibition of CYP51 in mouse NIH/3T3 cells assessed as specific enzymatic activity at 150 ug/ml incubated for 48 hrs by ELISA analysis; assay type: ADME, cell-based; details: nih/3t3, 48 h, dose 150 µg/ml
Mucor circinelloides [33] = test: Antifungal activity against Mucor circinelloides R7B wild type strain assessed as reduction in spore germination at 50 ug/ml relative to control; assay type: functional; parameters: scale not given: the % may be the effect or the level left; details: dose 50 µg/ml
[34] = Cytotoxicity against mouse NIH/3T3 cells assessed as reduction in cell viability at 100 ug/ml incubated for 48 hrs by MTT assay (reference value: 93.8 +/- 4.9 %); assay type: toxicity, cell-based, NIH3T3; details: at 100 µg/mL, read-out: Activity
[35] = target: T1, Lanosterol 14-alpha demethylase; test: Inhibition of CYP51 in mouse NIH/3T3 cells assessed as specific enzymatic activity at 25 ug/ml incubated for 48 hrs by ELISA analysis; assay type: ADME, cell-based; details: nih/3t3, 48 h, dose 25 µg/ml
Mucor circinelloides [36] = test: Antifungal activity against Mucor circinelloides R7B wild type strain assessed as reduction in spore germination at 150 ug/ml relative to control; assay type: functional; parameters: scale not given: the % may be the effect or the level left; details: dose 150 µg/ml
Mucor circinelloides [37] = test: Antifungal activity against Mucor circinelloides M5 strain assessed as few mycelia with several spores at 50 ug/ml by microscopic analysis; assay type: functional, organism-based; details: dose 50.0 µg/ml
[38] = Cytotoxicity against mouse NIH/3T3 cells assessed as reduction in cell viability at 200 ug/ml incubated for 48 hrs by MTT assay (reference value: 93.8 +/- 4.9 %); assay type: toxicity, cell-based, NIH3T3; details: at 200 µg/mL, read-out: Activity
Mucor circinelloides [39] = test: Antifungal activity against Mucor circinelloides M5 strain assessed as reduction in spore germination at 100 ug/ml relative to control; assay type: functional; parameters: scale not given: the % may be the effect or the level left; details: dose 100 µg/ml
Mucor circinelloides [40] = test: Antifungal activity against Mucor circinelloides R7B wild type strain assessed as reduction in spore germination at 25 ug/ml relative to control; assay type: functional; parameters: scale not given: the % may be the effect or the level left; details: dose 25 µg/ml

- MIC (Epidermophyton floccosum): 125 µg/mL (≈ 375 µM)
- Activity [3]: 6.76 U/mg
- MIC (Trichophyton rubrum [4]): 125 µg/mL (≈ 375 µM)
- MIC (Aspergillus niger): 150 µg/mL (≈ 450 µM)
- MIC (Microsporum canis [7]): 100 µg/mL (≈ 300 µM)
- MIC (Nannizzia gypsea [8]): 100 µg/mL (≈ 300 µM)
- MIC [10]: 125 µg/mL (≈ 375 µM)
- MIC (Mucor circinelloides [13]): 100 µg/mL (≈ 300 µM)
- MIC (Aspergillus nidulans [15]): 150 µg/mL (≈ 450 µM)
- MIC [16]: 125 µg/mL (≈ 375 µM)
- Activity [17]: 1.18 U/mg
- MIC (Microsporum canis [18]): 100 µg/mL (≈ 300 µM)
- MIC (Trichophyton rubrum [19]): 125 µg/mL (≈ 375 µM)
- MIC [21]: 125 µg/mL (≈ 375 µM)
- MIC (Nannizzia gypsea [22]): 100 µg/mL (≈ 300 µM)
- MIC (Microsporum canis [23]): 100 µg/mL (≈ 300 µM)
- MIC (Aspergillus nidulans [24]): 150 µg/mL (≈ 450 µM)
- Activity [27]: 13.12 U/mg
- MIC (Mucor circinelloides [28]): 150 µg/mL (≈ 450 µM)
- Activity [32]: 3.28 U/mg
- Activity [35]: 17.96 U/mg
Structure (SMILES): Fc1cc(F)cc(-c2cc(Oc3ccccc3)c3ccccc3n2)c1
- Activity (Mucor circinelloides [1]): Active
- viability at 48 h, 50 ug/ml [2]: 53.3%
- Activity (Mucor circinelloides [5]): 2.5%
- Activity (Mucor circinelloides [6]): Active
- Activity (Mucor circinelloides [9]): Active
- Activity (Mucor circinelloides [11]): 6.7%
- Activity (Mucor circinelloides [12]): 38.5%
- Activity (Mucor circinelloides [14]): Active
- Activity (Mucor circinelloides [20]): Active
- Activity (Mucor circinelloides [25]): Active
- viability at 48 h, 25 ug/ml [26]: 90.7%
- Activity (Mucor circinelloides [29]): Active
- Activity (Mucor circinelloides [30]): 74.2%
- viability at 48 h, 150 ug/ml [31]: 15%
- Activity (Mucor circinelloides [33]): 34.7%
- viability at 48 h, 100 ug/ml [34]: 20.4%
- Activity (Mucor circinelloides [36]): 1.7%
- Activity (Mucor circinelloides [37]): Active
- viability at 48 h, 200 ug/ml [38]: 12.6%
- Activity (Mucor circinelloides [39]): 4.5%
- Activity (Mucor circinelloides [40]): 78.5%
